Test results from patent US20210330611A1, “THERAPY FOR NEUROLOGICAL DISEASES/DISORDERS” (priority 2020, published 2021).
Structures can show the parent of a compound that is named as a salt. Where two headings read alike, the source gives them in different places.

What was measured:
[1] = tested on: fibrin- and LPS-induced microglia activation; assay: cells; assay type: cell-based, rat
[2] = tested on: primary rat microglia; assay: Cell toxicity (dead cells, size <150 μm2) in coated fibrin (cFib) assay;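 further: share of dead cells sized under 150 µm2 at 10 µM in fibrin-stimulated microglia HTS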
[3] = tested on: LPS-induced microglia activation; assay: Image-based assay of LPS-induced microglia activation (HTS and dose response); assay type: cell-based, rat; settings: for inhibition at 10 µM: Rattus norvegicus, Microglia, read-out: LPS % inhibition
[4] = tested on: primary rat microglia; assay: Cell toxicity (dead cells, size <150 μm2) in LPS assay
[5] = tested on: fibrin-induced microglia activation; assay: Image-based assay of fibrin-induced microglia activation (HTS and dose response); assay type: cell-based, rat; settings: for inhibition at 10 µM: Rattus norvegicus, Microglia, read-out: Fibrin % inhibition
[6] = HTS of 1907 compounds, quadrant by fibrin and LPS inhibition
[7] = primary microglia HTS, 10 μM, fibrin assay, cell size <150 μm^2 as marker of toxicity
[8] = primary microglia HTS, 10 μM, LPS-stimulated, cell size >800 μm^2 as marker of activation
[9] = primary microglia HTS, 10 μM, LPS assay, cell size <150 μm^2 as marker of toxicity
[10] = primary microglia HTS, 10 μM, fibrin-stimulated, cell size >800 μm^2 as marker of activation
[11] = primary HTS, 10 μM, fibrin assay, dead cells size <150 μm2
[12] = primary HTS, 10 μM, LPS-stimulated primary microglia
[13] = primary HTS, 10 μM, LPS assay, dead cells size <150 μm2
[14] = primary HTS, 10 μM, fibrin-stimulated primary microglia
[15] = quadrant by fibrin and LPS inhibition in HTS of 1907 compounds
[16] = primary microglia HTS, fibrin stimulation, decreased size (<150 μm^2) as marker of toxicity
[17] = 48 h, primary microglia HTS, LPS stimulation, increased cell size (>800 μm^2) as marker of activation
[18] = primary microglia HTS, LPS stimulation, decreased size (<150 μm^2) as marker of toxicity
[19] = primary microglia HTS, fibrin stimulation, increased cell size (>800 μm^2) as marker of activation
[20] = primary microglia HTS, fibrin stimulation, toxicity = cell size <150 μm2
[21] = 48 h, primary microglia HTS, LPS stimulation, activation = cell size >800 μm2
[22] = primary microglia HTS, LPS stimulation, toxicity = cell size <150 μm2
[23] = primary microglia HTS, fibrin stimulation, activation = cell size >800 μm2
[24] = primary microglia HTS, LPS stimulation, increased cell size (>800 μm^2) as marker of activation
[25] = primary microglia HTS, LPS stimulation, activation = cell size >800 μm2

Q: For `Cc1ccc(C(=O)C(C)CN2CCCCC2)cc1` (centres unmarked) [Tolperisone], which “Quadrant (FIG. 5b)” value [1, 6] is on record?
A: Q4

Q: And the “Fibrin % cell toxicity” value [2, 7]?
A: 1%

Q: What about the inhibition at 10 µM [3, 8] of the same compound?
A: 11%

Q: And the “LPS % cell toxicity” value [4, 9]?
A: 0%

Q: And the inhibition at 10 µM [5, 10]?
A: -7%

Q: Which results are given for `Oc1ccc(Cl)c2c1CCC2` [Chlorindanol]?
A: Quadrant (FIG. 5b) ([1]; primary HTS, 10 μM): Q4; Fibrin % cell toxicity [2, 11]: 1%; inhibition at 10 µM [3, 12]: 15%; LPS % cell toxicity [4, 13]: 0%; inhibition at 10 µM [5, 14]: 23%

Q: `O=[N+]([O-])OCC(CO[N+](=O)[O-])O[N+](=O)[O-]` [Nitroglycerin] was tested. Which “Quadrant (FIG. 5b)” value [1, 15] did it give?
A: Q4

Q: What about the “Fibrin % cell toxicity” value [2, 16] of the same compound?
A: 1%

Q: What about the inhibition at 10 µM [3, 17] of the same compound?
A: 17%

Q: And the “LPS % cell toxicity” value [4, 18]?
A: 1%

Q: What about the inhibition at 10 µM [5, 19] of the same compound?
A: 2%

Q: Which results are given for `CNCC(O)c1ccc(O)cc1` (centres unmarked) [Synephrine]?
A: Quadrant (FIG. 5b) [1, 6]: Q4; Fibrin % cell toxicity [2, 7]: 0%; inhibition at 10 µM [3, 8]: 12%; LPS % cell toxicity [4, 9]: 0%; inhibition at 10 µM [5, 10]: -16%

Q: For `NC(=O)c1cc[n+](CC2=C(C(=O)[O-])N3C(=O)[C@@H](NC(=O)Cc4cccs4)[C@H]3SC2)cc1` [Cefalonium], which “Quadrant (FIG. 5b)” value ([1]; primary HTS, 10 μM) is on record?
A: Q4

Q: And the “Fibrin % cell toxicity” value [2, 11]?
A: 1%

Q: And the inhibition at 10 µM [3, 12]?
A: 11%

Q: And the “LPS % cell toxicity” value [4, 13]?
A: 0%

Q: And the inhibition at 10 µM [5, 14]?
A: 9%

Q: Which results are given for `C1N2CN3CN1CN(C2)C3` [Hexamethylenetetramine]?
A: Quadrant (FIG. 5b) [1, 15]: Q4; Fibrin % cell toxicity [2, 20]: 1%; inhibition at 10 µM [3, 21]: 20%; LPS % cell toxicity [4, 22]: 0%; inhibition at 10 µM [5, 23]: -9%

Q: Which results are given for `NC(N)=O` [Urea]?
A: Quadrant (FIG. 5b) [1, 6]: Q4; Fibrin % cell toxicity [2, 7]: 1%; LPS % inhibition [3, 8]: 20%; LPS % cell toxicity [4, 9]: 0%; Fibrin % inhibition [5, 10]: −14%

Q: Which results are given for `CC(=O)N[C@H]1[C@H]([C@H](O)[C@H](O)CO)OC(O)(C(=O)O)C[C@@H]1O` (some centres unmarked) [N-acetylneuramic Acid, Aceneuramic Acid]?
A: Quadrant (FIG. 5b) [1, 15]: Q4; Fibrin % cell toxicity [2, 16]: 1%; LPS % inhibition [3, 24]: 19%; LPS % cell toxicity [4, 18]: 1%; Fibrin % inhibition [5, 19]: −9%

Q: Which “Quadrant (FIG. 5b)” value [1, 15] does the source give for `Oc1c(Cl)cc(Cl)c(Cl)c1Cc1c(O)c(Cl)cc(Cl)c1Cl` [Hexachlorophene] here?
A: Q4

Q: What about the “Fibrin % cell toxicity” value [2, 20] of the same compound?
A: 0%

Q: What about the inhibition at 10 µM ([3]; 48 h) of the same compound?
A: 15%

Q: What about the “LPS % cell toxicity” value [4, 22] of the same compound?
A: 0%

Q: What about the inhibition at 10 µM [5] of the same compound?
A: -19%

Q: What does the source list for `CC(C)COC(=O)c1ccc(N)cc1` [Isobutamben]?
A: Quadrant (FIG. 5b) [1, 15]: Q4; Fibrin % cell toxicity [2, 20]: 1%; inhibition at 10 µM [3, 21]: -1%; LPS % cell toxicity [4, 22]: 0%; inhibition at 10 µM [5, 23]: -5%

Q: With `CC[n+]1c(-c2ccccc2)c2cc(N)ccc2c2ccc(N)cc21` [Homidium Bromide] as the compound, how does the “Quadrant (FIG. 5b)” value [1, 15] read?
A: Q2

Q: What about the “Fibrin % cell toxicity” value [2, 16] of the same compound?
A: 17%

Q: What about the inhibition at 10 µM [3, 17] of the same compound?
A: 103%

Q: What about the “LPS % cell toxicity” value [4, 18] of the same compound?
A: 9%

Q: What about the inhibition at 10 µM [5, 19] of the same compound?
A: 84%

Q: What does the source list for `CC1Cc2ccccc2N1NC(=O)c1ccc(Cl)c(S(N)(=O)=O)c1` (centres unmarked) [Indapamide]?
A: Quadrant (FIG. 5b) [1, 15]: Q4; Fibrin % cell toxicity [2, 20]: 0%; inhibition at 10 µM [3, 21]: 11%; LPS % cell toxicity [4, 22]: 0%; inhibition at 10 µM [5, 23]: -14%

Q: With `CC(C)(CO)C(O)C(=O)NCCCO` (centres unmarked) [Panthenol] as the compound, how does the “Quadrant (FIG. 5b)” value [1, 15] read?
A: Q4

Q: And the “Fibrin % cell toxicity” value [2, 16]?
A: 1%

Q: And the inhibition at 10 µM [3, 17]?
A: 6%

Q: What about the “LPS % cell toxicity” value [4, 18] of the same compound?
A: 0%

Q: And the inhibition at 10 µM [5, 19]?
A: -32%

Q: How did the “Quadrant (FIG. 5b)” value [1, 15] turn out when `CC(C)(C)NC[C@H](O)COc1cccc2c1CCCC2=O` [Levobunolol] was run?
A: Q4

Q: And the “Fibrin % cell toxicity” value [2, 20]?
A: 1%

Q: What about the LPS % inhibition [3, 25] of the same compound?
A: 30%

Q: And the “LPS % cell toxicity” value [4, 22]?
A: 0%

Q: And the Fibrin % inhibition [5, 23]?
A: −28%

Q: Which “Quadrant (FIG. 5b)” value ([1]; primary HTS, 10 μM) does the source give for `N[C@@H](C(=O)N[C@@H]1C(=O)N2C(C(=O)O)=C(Cl)CS[C@H]12)c1ccccc1` [Cefaclor] here?
A: Q4

Q: And the “Fibrin % cell toxicity” value [2, 11]?
A: 1%

Q: What about the inhibition at 10 µM [3, 12] of the same compound?
A: 19%

Q: And the “LPS % cell toxicity” value [4, 13]?
A: 0%

Q: And the inhibition at 10 µM [5, 14]?
A: -14%

Q: Which results are given for `COc1nc(N)nc2c1ncn2[C@@H]1O[C@H](CO)[C@@H](O)[C@@H]1O` [Nelarabin]?
A: Quadrant (FIG. 5b) [1, 15]: Q4; Fibrin % cell toxicity [2, 16]: 0%; LPS % inhibition [3, 24]: 0%; LPS % cell toxicity [4, 18]: 0%; Fibrin % inhibition [5, 19]: −10%

Q: `CO/N=C(\C(=O)N[C@@H]1C(=O)N2C(C(=O)O)=C(COC(C)=O)CS[C@H]12)c1csc(N)n1` [Cefotaxime] was tested. Which “Quadrant (FIG. 5b)” value ([1]; primary HTS, 10 μM) did it give?
A: Q4

Q: And the “Fibrin % cell toxicity” value [2, 11]?
A: 1%

Q: What about the LPS % inhibition [3, 12] of the same compound?
A: −8%

Q: And the “LPS % cell toxicity” value [4, 13]?
A: 0%

Q: What about the Fibrin % inhibition [5, 14] of the same compound?
A: −20%

Q: Which “Quadrant (FIG. 5b)” value [1, 15] does the source give for `N#Cc1nn(-c2c(Cl)cc(C(F)(F)F)cc2Cl)c(N)c1[S+]([O-])C(F)(F)F` (centres unmarked) [Fipronil] here?
A: Q4

Q: What about the “Fibrin % cell toxicity” value [2, 20] of the same compound?
A: 1%

Q: What about the inhibition at 10 µM [3, 21] of the same compound?
A: 12%

Q: What about the “LPS % cell toxicity” value [4, 22] of the same compound?
A: 0%

Q: What about the inhibition at 10 µM [5, 23] of the same compound?
A: -5%

Q: Which results are given for `CC1(C)S[C@@H]2[C@H](NC(=O)Cc3ccccc3)C(=O)N2[C@H]1C(=O)O` [Benzylpenicillin]?
A: Quadrant (FIG. 5b) ([1]; primary HTS, 10 μM): Q4; Fibrin % cell toxicity [2, 11]: 1%; inhibition at 10 µM [3, 12]: 42%; LPS % cell toxicity [4, 13]: 0%; inhibition at 10 µM [5, 14]: 29%

Q: `Cc1ccc2c(Br)cc(Br)c(OC(=O)c3ccccc3)c2n1` [Broxaldine] was tested. Which “Quadrant (FIG. 5b)” value ([1]; primary HTS, 10 μM) did it give?
A: Q4

Q: What about the “Fibrin % cell toxicity” value [2, 11] of the same compound?
A: 1%

Q: And the inhibition at 10 µM [3, 12]?
A: 6%

Q: What about the “LPS % cell toxicity” value [4, 13] of the same compound?
A: 0%

Q: What about the inhibition at 10 µM [5, 14] of the same compound?
A: 19%

Q: Which results are given for `CCC[C@@H]1C[C@@H](C(=O)N[C@@H]([C@H]2O[C@H](SC)[C@H](O)[C@@H](O)[C@H]2O)[C@@H](C)O)N(C)C1` [Lincomycin Hydrochloride]?
A: Quadrant (FIG. 5b) [1, 15]: Q4; Fibrin % cell toxicity [2, 20]: 1%; LPS % inhibition [3, 25]: 14%; LPS % cell toxicity [4, 22]: 0%; Fibrin % inhibition [5, 23]: −4%

Q: `CNC(=O)c1c(I)c(NC(C)=O)c(I)c(C(=O)O)c1I` [Iothalamic Acid] was tested. Which “Quadrant (FIG. 5b)” value [1, 15] did it give?
A: Q4

Q: And the “Fibrin % cell toxicity” value [2, 20]?
A: 1%

Q: And the inhibition at 10 µM [3, 21]?
A: 7%

Q: And the “LPS % cell toxicity” value [4, 22]?
A: 0%

Q: And the inhibition at 10 µM [5, 23]?
A: 5%

Q: Which “Quadrant (FIG. 5b)” value [1, 15] does the source give for `Nc1nc(F)nc2c1ncn2[C@@H]1O[C@H](COP(=O)(O)O)[C@@H](O)[C@@H]1O` [Fludarabine Phosphate] here?
A: Q4

Q: And the “Fibrin % cell toxicity” value [2, 20]?
A: 1%

Q: What about the inhibition at 10 µM [3, 21] of the same compound?
A: 11%

Q: And the “LPS % cell toxicity” value [4, 22]?
A: 0%

Q: And the inhibition at 10 µM [5, 23]?
A: 1%

Q: How did the “Quadrant (FIG. 5b)” value ([1]; primary HTS, 10 μM) turn out when `CC(C)(O)C(Cl)(Cl)Cl` [Chlorobutanol] was run?
A: Q4

Q: What about the “Fibrin % cell toxicity” value [2, 11] of the same compound?
A: 1%

Q: And the inhibition at 10 µM [3, 12]?
A: 3%

Q: And the “LPS % cell toxicity” value [4, 13]?
A: 0%

Q: What about the inhibition at 10 µM [5, 14] of the same compound?
A: -20%

Q: `Cc1nnc(NS(=O)(=O)c2ccc(N)cc2)s1` [Sulfamethizole] was tested. Which “Quadrant (FIG. 5b)” value [1, 6] did it give?
A: Q4

Q: And the “Fibrin % cell toxicity” value [2, 7]?
A: 1%

Q: And the inhibition at 10 µM [3, 8]?
A: 16%

Q: What about the “LPS % cell toxicity” value [4, 9] of the same compound?
A: 0%

Q: And the inhibition at 10 µM [5, 10]?
A: -3%
